This passage reports IC50 results from BindingDB's records for doi:10.7270/Q2X63KDM (Burnham Center For Chemical Genomics, 2010).

pIC50: −log10 of the molar value.

The target in the assay is Intestinal-type alkaline phosphatase (Homo sapiens, UniProt P09923). The assay can be described thus: inhibition of human intestinal alkaline phosphatase – biochemical, dose response (AID 488876).
Sequence of Intestinal-type alkaline phosphatase (P09923 whole entry): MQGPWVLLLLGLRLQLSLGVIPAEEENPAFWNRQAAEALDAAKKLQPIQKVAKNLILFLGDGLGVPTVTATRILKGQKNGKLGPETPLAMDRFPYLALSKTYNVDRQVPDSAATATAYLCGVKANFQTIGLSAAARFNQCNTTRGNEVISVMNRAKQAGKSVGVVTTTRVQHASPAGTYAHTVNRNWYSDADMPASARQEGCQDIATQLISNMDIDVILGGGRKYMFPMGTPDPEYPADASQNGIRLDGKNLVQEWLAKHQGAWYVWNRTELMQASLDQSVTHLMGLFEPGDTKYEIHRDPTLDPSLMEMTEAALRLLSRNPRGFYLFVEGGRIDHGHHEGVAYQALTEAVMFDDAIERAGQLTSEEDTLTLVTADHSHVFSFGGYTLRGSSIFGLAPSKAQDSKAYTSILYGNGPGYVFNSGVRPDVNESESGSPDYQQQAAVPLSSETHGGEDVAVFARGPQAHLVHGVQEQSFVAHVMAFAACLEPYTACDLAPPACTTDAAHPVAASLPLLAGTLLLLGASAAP
Usually pIC50 stands for the negative decadic logarithm of the IC50, by convention in mol/L. A high value points to a small IC50. On to `Cc1ccc(Cl)c2c1NC(=O)/C2=C1/NC(=S)NC1=O`, for which the pIC50 was under 4.00.

On to `Nc1nnc(CC(=O)N/N=C/C2C=C([N+](=O)[O-])C=C(Br)C2=O)s1` (centres undefined) [2-(5-azanyl-1,3,4-thiadiazol-2-yl)-N'-[(E)-(5-bromanyl-3-nitro-6-oxidanylidene-cyclohexa-2,4-dien-1-ylidene)methyl]ethanehydrazide], for which the pIC50 is under 4.00.

In turn, `NS(=O)(=O)c1cc(C(=O)NNC2=c3ccccc3=NC2=O)ccc1Cl` [2-chloro-5-[[(2-oxoindol-3-yl)amino]carbamoyl]benzenesulfonamide] gave a pIC50 of under 4.00.

Compound `COc1cc(C=Nn2c(O)csc2=S)ccc1O` [3-[[(E)-(3-methoxy-4-oxidanylidene-cyclohexa-2,5-dien-1-ylidene)methyl]amino]-2-sulfanylidene-1,3-thiazolidin-4-one] showed a pIC50 of 4.67.

`Oc1ccc(C=Nn2c(O)csc2=S)c(O)c1O` [3-[[(E)-[2,3-bis(oxidanyl)-4-oxidanylidene-cyclohexa-2,5-dien-1-ylidene]methyl]amino]-2-sulfanylidene-1,3-thiazolidin-4-one] had a pIC50 of under 4.00.

`CC1NON=C1C(=O)NN=CC1=CC(=O)C(=O)C=C1` (centres undefined) [4-Methyl-furazan-3-carboxylic acid (3,4-dihydroxy-benzylidene)-hydrazide] gave a pIC50 of 4.85.

For the compound `Cc1ccc(/C=C2\SC(=S)N(/N=C/C3C=C([N+](=O)[O-])C=CC3=O)C2=O)o1` (centres undefined) [(5Z)-5-[(5-methylfuran-2-yl)methylidene]-3-[[(E)-(3-nitro-6-oxocyclohexa-2,4-dien-1-ylidene)methyl]amino]-2-sulfanylidene-1,3-thiazolidin-4-one], the pIC50 is 4.10.

Consider `C#CCOCCOCCOCCNc1nc(N2CCN(C(=O)CCCCCCCCCCNC(=O)[C@H]([C@@H](C)CC)n3cc(CCCCN=C(N)N)nn3)CC2)nc(N2CCN(C(=O)CCCCCCCCCCNC(=O)[C@@H]([C@H](C)O)n3cc(C)nn3)CC2)n1` [GT-RI], for which the negative logarithm of the IC50 (pIC50) is 4.06.

The compound `C#CCOCCOCCOCCNc1nc(N2CCN(C(=O)CCCCCCCCCCNC(=O)Cn3cc(CCCCCN)nn3)CC2)nc(N2CCN(C(=O)CCCCCCCCCCNC(=O)Cn3cc(C[C@@H](C)O)nn3)CC2)n1` [KG-TG] had a pIC50 of under 4.00.

As to `O=C1C=CC(C=NNC(=S)Nc2ccccc2[N+](=O)[O-])C=C1O` (centres undefined) [MLS000417596], the pIC50 is under 4.00.

In turn, `C#CCOCCOCCOCCNc1nc(N2CCN(C(=O)CCCCCCCCCCNC(=O)[C@@H](CCSC)n3cc(CCO)nn3)CC2)nc(N2CCN(C(=O)CCCCCCCCCCNC(=O)[C@H]([C@@H](C)CC)n3cc(CCCCCN)nn3)CC2)n1` [MLS002153719] gave a pIC50 of 4.84.

With `O=C(Nn1c(O)csc1=S)C(=O)Nn1c(O)csc1=S` [SMR000349781], the pIC50 is under 4.00.

For the compound `O=C1C=CC(/C=C/c2nc(O)c([N+](=O)[O-])c(=O)[nH]2)C=C1O` (centres undefined) [SMR000524347], the pIC50 was 5.36.

`COc1cc(C=CC(=O)CC(=O)C=Cc2ccc(O)cc2)ccc1O` [demethoxycurcumin] had a pIC50 of under 4.00.
